Measured values taken from patent US20130210034A1, “COMPLEX PHOSPHOPROTEIN ACTIVATION PROFILES” (BECKMAN COULTER, INC., priority 2005, published 2013).

System: pSTAT5
Assay: Cytokine-stimulated phosphorylation in AML cell populations (BM or PB of AML patients)
Type: cell-based, human
Protocol: To assess the signal transduction response after growth factor simulation, a series comprising two sets of tubes including about 3×10^6 cells/100 μL were incubated at 37° C. for 30 minutes. After this pre-incubation period, tubes with then processes with either a stimulant or inhibitor. […] To examine the effects of protein phosphorylation inhibition, tubes were incubated with an inhibitor cocktail comprising 100 μM/100 μL UO126, 1 μM/100 μL LY294002, and 1 μM/100 μL rapamycin. One unstimulated tube receiving no stimulant or inhibitor was processed to assess basal levels of phospho-protein expression. After stimulation the cells were immediately fixed in 10% formaldehyde solution at 37° C. Pre-labeling with CD13, CD16 and CD64 antibodies was carried out 20 minutes prior to formaldehyde fixation. After fixation, one set of tubes was permeabilized without methanol for pAKT, pERK and pS6 staining and the other for 80% methanol permeabilized for pSTAT3 and pSTAT5 staining. After permeablization, the cells were washed in PBS with 2% BSA and blocked by re-suspended in 75 μL of PBS comprising 25% heat inactivated normal mouse serum, 25% normal rabbit serum. To stain cells with fluorescent conjugated monoclonal antibodies, samples were incubated on ice for 45 minutes in 100 μL of an antibody staining solution including either: 1) CD15-Pacific Orange, CD34-Phycoerythrin-Texas Red, CD117-Phycoerythrin-Cyanin 5.5, CD45-Allophycocyanin-Alexa Fluor 750 (or CD45-Pacific Orange, in which case CD15-Pacific Orange was omitted), pS6-Pacific Blue, pERK-Alexa Fluor 488 and pAKT-Alexa Fluor 647 or 2) CD15-Pacific Orange, CD34-Phycoerythrin-Texas Red, CD117-Phycoerythrin-Cyanin 5.5, CD45-Allophycocyanin-Alexa Fluor 750 or CD45-Pacific Blue, pSTAT3-Alexa Fluor 488 and pSTAT5-Phycoerythrin. The stained cells were washed twice with ice cold PBS containing 2% BSA and centrifuged at 800 g for 6 minutes at 4° C. The supernatant was discarded and cells re-suspended in 250 μL of chilled wash buffer for data acquisition. Stained cells were examined using either GALIOS flow cytometer (Beckman Coulter) or CYAN ADP (Beckman Coulter) equipped with 488 nm, 405 nm and 635 nm lasers to detect the degree of fluorescence. Data were analyzed using FCS Express (De Novo Software, CA) analysis software.
Specific phosphoprotein expression of pERK, pS6, pAKT, pSTAT5, and pSTAT3 was examined in seven discrete phenotypically defined populations based on 7-color immunophenotyping (FIG. 1). The percent of responding (phosphorprotein positive) cells for each of these populations was determined from individual single parameter histograms based on a fixed integration region set on the inhibitor treated control at about 3% positives.
Using normal BM signaling profiles of Example 1 as comparison, analysis of 14 AML samples was carried out to identify differences in signaling responses. White blood cells from BM or peripheral blood (PB) samples were obtained from 14 diagnosed AML patients undergoing routine clinical flow cytometry analysis using IRB approved protocols. The AML patients included newly diagnosed AML, AMLs arising in a background of MDS, therapy related AMLs and previously diagnosed AML post therapy. The median age of the patients at diagnosis was 51 years (range: 29-75 years) and represented 5 female and 9 male patients. The median white blood cell was 6.4 million/mL (range: 0.9-106 M/mL) and the BM morphologic blast count was an average of 46% (range: 0%-90%).
Experiments performed to assess the signal transduction response after growth factor simulation were performed as described for Example 1.

For “Granulocyte-Macrophage Colony-Stimulating Factor [GM-CSF]”, the “pSTAT5, AML Sample” value (patient AML2 (Example 3)) was 14.6, the “pSTAT5, AML Sample” value (patient AML5 (Example 3)) was 2.0 and the “pSTAT5, AML Sample” value (patient AML6 (Example 3)) was 2.5. For the same substance, the “pSTAT5, AML Sample” value (patient AML8 (Example 3)) was 10.6, the “pSTAT5, AML Sample” value (patient AML13 (Example 3)) was 14.6 and the “pSTAT5, AML Sample” value (patient AML14 (Example 3)) was 4.7.
